Reference: US12583824B2 (Genzyme Corporation, priority 2019, dated 2026)

These molecules were tested against T1, CFTR in primary human bronchial epithelial cells from a ΔF508 homozygous CF donor (CF-HBE cells) (Homo sapiens, UniProt P13569, DEL508-508) (assay: TECC24 recording analysis of CFTR-mediated transepithelial chloride transport (AUC fold over DMSO)). Conditions: 3 μM test agent, CF-HBE cells cultured 48 hours at 36.5° C.; ratio of test agent AUC of forskolin-stimulated IEQ divided by vehicle (DMSO) AUC.
T1 construct: Primary human bronchial epithelial cells from a ΔF508 homozygous CF donor; host or cells: primary human bronchial epithelial cells (CF-HBE), ΔF508 homozygous donor
T1 sequence (P13569 with tags, fused parts or gaps DEL508-508): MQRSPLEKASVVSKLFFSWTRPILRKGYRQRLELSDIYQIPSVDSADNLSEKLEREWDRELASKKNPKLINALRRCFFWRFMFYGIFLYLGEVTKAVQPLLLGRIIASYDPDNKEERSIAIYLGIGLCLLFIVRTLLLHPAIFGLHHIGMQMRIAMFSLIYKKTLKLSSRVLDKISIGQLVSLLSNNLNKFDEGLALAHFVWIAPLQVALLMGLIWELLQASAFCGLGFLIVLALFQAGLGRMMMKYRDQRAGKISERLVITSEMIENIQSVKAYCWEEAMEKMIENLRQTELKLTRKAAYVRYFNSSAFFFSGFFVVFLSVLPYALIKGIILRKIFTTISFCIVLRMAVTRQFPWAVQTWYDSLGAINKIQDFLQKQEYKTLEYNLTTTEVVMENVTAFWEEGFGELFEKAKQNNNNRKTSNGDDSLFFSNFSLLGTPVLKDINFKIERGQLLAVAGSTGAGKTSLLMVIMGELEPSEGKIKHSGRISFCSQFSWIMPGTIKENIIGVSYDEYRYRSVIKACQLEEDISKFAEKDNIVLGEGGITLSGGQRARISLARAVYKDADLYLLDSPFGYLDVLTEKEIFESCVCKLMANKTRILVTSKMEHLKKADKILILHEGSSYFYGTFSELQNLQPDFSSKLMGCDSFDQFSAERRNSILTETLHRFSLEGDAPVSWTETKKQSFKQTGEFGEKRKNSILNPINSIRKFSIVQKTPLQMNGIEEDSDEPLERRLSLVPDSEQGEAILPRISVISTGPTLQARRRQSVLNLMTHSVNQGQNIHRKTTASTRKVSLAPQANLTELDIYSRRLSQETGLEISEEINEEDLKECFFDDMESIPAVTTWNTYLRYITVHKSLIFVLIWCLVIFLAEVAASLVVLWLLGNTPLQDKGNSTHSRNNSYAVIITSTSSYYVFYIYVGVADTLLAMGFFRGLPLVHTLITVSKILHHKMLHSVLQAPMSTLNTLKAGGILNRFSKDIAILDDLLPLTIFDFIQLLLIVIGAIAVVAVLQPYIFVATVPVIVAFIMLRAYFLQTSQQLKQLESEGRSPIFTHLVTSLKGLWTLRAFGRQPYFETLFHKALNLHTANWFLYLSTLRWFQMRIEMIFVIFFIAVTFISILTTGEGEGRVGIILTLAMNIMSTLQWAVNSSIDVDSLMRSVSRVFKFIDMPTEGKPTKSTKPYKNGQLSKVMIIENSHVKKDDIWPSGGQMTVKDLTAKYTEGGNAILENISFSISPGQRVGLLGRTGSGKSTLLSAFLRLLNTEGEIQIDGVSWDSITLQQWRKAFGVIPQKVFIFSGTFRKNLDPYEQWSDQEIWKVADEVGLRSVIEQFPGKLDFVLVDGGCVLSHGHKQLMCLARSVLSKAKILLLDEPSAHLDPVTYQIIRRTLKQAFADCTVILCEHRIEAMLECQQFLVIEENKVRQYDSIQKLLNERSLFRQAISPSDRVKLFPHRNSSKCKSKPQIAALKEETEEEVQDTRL
Format: cell-based
Method: Example 31: TECC24 AUC Fold Over DMSO @ 3 μM
The effects of a test agent on CFTR-mediated transepithelial chloride transport was measured using TECC24 recording analysis. Test agents were solubilized in DMSO. Solubilized test agents were mixed with incubation medium containing DMEM/F12, Ultroser G (2%; Crescent Chemical, catalog #67042), Hyclone Fetal Clone II (2%; GE Healthcare, catalog #SH30066.02), bovine brain extract (0.25%; Lonza, catalog #CC-4098), insulin (2.5 μg/mL), IL-13 (10 ng/mL), hydrocortisone (20 nM), transferrin (2.5 μg/mL), triiodothyronine (500 nM), ethanolamine (250 nM), epinephrine (1.5 μM), phosphoethanolamine (250 nM), and retinoic acid (10 nM). Primary human bronchial epithelial cells from a ΔF508 homozygous CF donor (CF-HBE cells; from University of North Carolina Cystic Fibrosis Tissue Procurement Center), grown on Transwell HTS 24-well cell culture inserts (Costar, catalog #3378), were exposed to test agents or controls dissolved in incubation medium. The CF-HBE cells were cultured at 36.5° C. for 48 hours before TECC24 recordings were performed in the presence or absence of test agent, a positive control or vehicle (DMSO).
Following incubation, the transwell cell culture inserts containing the test agent or control-treated CF-HBE cells were loaded onto a TECC24 apparatus (TECC v7 or MTECC v2; EP Design) to record the transepithelial voltage (VT) and resistance (TEER) using 4 AgCl electrodes per well configured in current-clamp mode. The apical and basolateral bath solutions both contained (in mM) 140 NaCl, 5 KCl, 2 CaCl2), 1 MgCl2, 10 Hepes, and 10 glucose (adjusted to pH 7.4 with NaOH). To inhibit basal Na+ absorption, the ENaC inhibitor benzamil (10 μM) was added to the bath. Then, the adenylate cyclase activator, forskolin (10 μM), was added to the bath to activate CFTR. The forskolin-stimulated Cl-transport was halted by addition of bumetanide (20 μM), an inhibitor of the basolateral chloride co-transporter NKCC1, to the bath to confirm that the detected signal was chloride dependent. VT and TEER recordings were digitally acquired at routine intervals using TECC or MTECC software (EP Design). VT and TEER were transformed into equivalent transepithelial Cl-current (IEQ), and the Area Under the Curve (AUC) of the IEQ time course between forskolin and bumetanide addition is generated using Excel (Microsoft). Efficacy is expressed as the ratio of the test agent AUC divided by vehicle AUC. EC50s based on AUC are generated using the non-linear regression log(agonist) vs. response function in Prism software (GraphPad) with Hill Slope fixed=1.
If a test agent increased the AUC of the forskolin-stimulated IEQ relative to vehicle in CF-HBE cells, and this increase was inhibited by bumetanide, then the test agent was considered a CFTR corrector.

Row | Structure (SMILES) | TECC24 AUC vs. DMSO (@3 μM)
1 | CC(C)c1ccccc1-c1nc(NS(=O)(=O)c2cccc(N)c2)ccc1-c1cccc(OCCC(C)(C)C)c1 [Example 16, 3-amino-N-(5-(3-(3,3-dimethylbutoxy)phenyl)-6-(2-isopropylphenyl)pyridin-2-yl)benzenesulfonamide] | A (“A “refers to AUC > 5)
2 | CC(C)(C)COc1cc(-c2ccc(NS(=O)(=O)c3cccc(N)c3)nc2-c2ccc(C(F)(F)F)cc2)ccc1Cl [Example 17, 3-amino-N-(5-(4-chloro-3-(neopentyloxy)phenyl)-6-(4-(trifluoromethyl)phenyl)pyridin-2-yl)benzenesulfonamide] | C (“C” refers to AUC < 2)
3 | CC(C)c1cc(Cl)ccc1-c1nc(NS(=O)(=O)c2ccccc2)ccc1-c1cccc(OC(F)(F)F)c1 [Example 19, N-(6-(4-chloro-2-isopropylphenyl)-5-(3-(trifluoromethoxy)phenyl)pyridin-2-yl)benzenesulfonamide] | A (“A “refers to AUC > 5)
4 | Cc1cccc(C)c1-c1nc(NS(=O)(=O)c2cccc(NC3CC(C)(O)C3)c2)ccc1-c1cccc(OCC(C)(C)C(F)(F)F)c1 (stereo not shown) [Example 20] | A (“A “refers to AUC > 5)
5 | CCc1ccccc1-c1nc(NS(=O)(=O)c2cccc(N3CCCC(C)(C(=O)O)C3)n2)ccc1-c1cccc(OCC(F)(F)F)c1 (stereo not shown) [Example 21, 1-[6-[[6-(2-ethylphenyl)-5-[3-(2,2,2-trifluoroethoxy)phenyl]-2-pyridyl]sulfamoyl]-2-pyridyl]-3-methyl-piperidine-3-carboxylic acid] | A (“A “refers to AUC > 5)
6 | CC(C)(C)COc1cc(-c2cnc(NS(=O)(=O)c3ccccc3)nc2-c2ccc(C(F)(F)F)cc2)ccc1Cl [Example 22, 5-(4-chloro-3-(neopentyloxy)phenyl)-2-((phenylsulfonyl)-12-azaneyl)-4-(4-(trifluoromethyl)phenyl)pyrimidine] | C (“C” refers to AUC < 2)
7 | CC(C)(C)COc1cc(-c2cnc(NS(=O)(=O)c3cccc(N)c3)nc2-c2ccc(C(F)(F)F)cc2)ccc1Cl [Example 23] | B (“B” refers to AUC between 2-5)
8 | CC(C)(C)COc1cc(-c2cnc(NS(=O)(=O)c3cccc(NS(C)(=O)=O)c3)nc2-c2ccc(C(F)(F)F)cc2)ccc1Cl [Example 24, N-(5-(4-chloro-3-(neopentyloxy)phenyl)-4-(4-(trifluoromethyl)phenyl)pyrimidin-2-yl)-3-(methylsulfonamido)benzenesulfonamide] | C (“C” refers to AUC < 2)
9 | CC(C)(C)COc1cc(-c2cnc(NS(=O)(=O)c3cccnc3)nc2-c2ccc(C(F)(F)F)cc2)ccc1Cl [Example 25, N-(5-(4-chloro-3-(neopentyloxy)phenyl)-4-(4-(trifluoromethyl)phenyl)pyrimidin-2-yl)pyridine-3-sulfonamide] | C (“C” refers to AUC < 2)
10 | CC(C)(C)COc1cc(-c2cnc(NS(=O)(=O)c3cccc(Cl)n3)nc2-c2ccc(C(F)(F)F)cc2)ccc1Cl [Example 26, 5-(4-chloro-3-(neopentyloxy)phenyl)-2-(((6-chloropyridin-2-yl)sulfonyl)-12-azaneyl)-4-(4-(trifluoromethyl)phenyl)pyrimidine] | C (“C” refers to AUC < 2)
